Test results as given in PubChem BioAssay (NCI).
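Interpolation was linear, between the two tested concentrations surrounding the appropriate level; five concentrations were tested over 48 hours in 96-well plates. TGI denotes the concentration required for complete inhibition of growth.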

Assays:
Assay in all cases: NCI anticancer screen, dose series, 48 h
HCT-116 colon = system: HCT-116 colon
SR leukemia = system: SR leukemia
HCT-15 colon = system: HCT-15 colon
T-47D breast = system: T-47D breast
NCI-H522 lung = system: NCI-H522 lung
KM12 colon = system: KM12 colon
RPMI-8226 leukemia = system: RPMI-8226 leukemia
NCI-H23 lung = system: NCI-H23 lung
SF-268 CNS = system: SF-268 CNS
U251 CNS = system: U251 CNS
PC-3 prostate = system: PC-3 prostate
SK-MEL-2 melanoma = system: SK-MEL-2 melanoma
ACHN renal = system: ACHN renal
HT29 colon = system: HT29 colon
DU-145 prostate = system: DU-145 prostate
BT-549 breast = system: BT-549 breast
NCI-H460 lung = system: NCI-H460 lung
COLO 205 colon = system: COLO 205 colon
UACC-257 melanoma = system: UACC-257 melanoma
MDA-N = system: MDA-N
MDA-MB-435 = system: MDA-MB-435
CAKI-1 renal = system: CAKI-1 renal
OVCAR-5 ovarian = system: OVCAR-5 ovarian
K-562 leukemia = system: K-562 leukemia
SNB-19 CNS = system: SNB-19 CNS
SN12C renal = system: SN12C renal
TK-10 renal = system: TK-10 renal
SNB-75 CNS = system: SNB-75 CNS
OVCAR-3 ovarian = system: OVCAR-3 ovarian
IGROV1 ovarian = system: IGROV1 ovarian
SF-295 CNS = system: SF-295 CNS
OVCAR-8 ovarian = system: OVCAR-8 ovarian
MCF7 breast = system: MCF7 breast
SF-539 CNS = system: SF-539 CNS
UO-31 renal = system: UO-31 renal
HS 578T breast = system: HS 578T breast
UACC-62 melanoma = system: UACC-62 melanoma
MOLT-4 leukemia = system: MOLT-4 leukemia
SW-620 colon = system: SW-620 colon
HOP-92 NSCLC = system: HOP-92 NSCLC
MALME-3M melanoma = system: MALME-3M melanoma
MDA-MB-231 breast = system: MDA-MB-231 breast
CCRF-CEM leukemia = system: CCRF-CEM leukemia
A498 renal = system: A498 renal
786-0 renal = system: 786-0 renal
EKVX NSCLC = system: EKVX NSCLC
A549 NSCLC = system: A549 NSCLC
OVCAR-4 ovarian = system: OVCAR-4 ovarian
RXF 393 renal = system: RXF 393 renal
SK-OV-3 ovarian = system: SK-OV-3 ovarian
M14 melanoma = system: M14 melanoma
SK-MEL-28 melanoma = system: SK-MEL-28 melanoma
NCI/ADR-RES ovarian = system: NCI/ADR-RES ovarian
SK-MEL-5 melanoma = system: SK-MEL-5 melanoma
HOP-62 NSCLC = system: HOP-62 NSCLC
LOX IMVI melanoma = system: LOX IMVI melanoma
HL-60(TB) leukemia = system: HL-60(TB) leukemia
NCI-H226 lung = system: NCI-H226 lung
HCC-2998 colon = system: HCC-2998 colon

Compound: CC(C)(C)c1ccc(O)c(CN(Cc2cc(C(C)(C)C)ccc2O)c2ccccc2)c1
- TGI (HCT-116 colon): 33.9 µM
- TGI (SR leukemia): 38.1 µM
- TGI (HCT-15 colon): 35.8 µM
- TGI (T-47D breast): 42.8 µM
- TGI (NCI-H522 lung): 26.9 µM
- TGI (KM12 colon): 66.7 µM
- TGI (RPMI-8226 leukemia): 47.7 µM
- TGI (NCI-H23 lung): 40.8 µM
- TGI (SF-268 CNS): 38.3 µM
- TGI (U251 CNS): 28.4 µM
- TGI (PC-3 prostate): 42.1 µM
- TGI (SK-MEL-2 melanoma): 33.3 µM
- TGI (ACHN renal): 35.5 µM
- TGI (HT29 colon): 35.3 µM
- TGI (DU-145 prostate): 38.3 µM
- TGI (BT-549 breast): 36.4 µM
- TGI (NCI-H460 lung): 30.9 µM
- TGI (COLO 205 colon): 30.9 µM
- TGI (UACC-257 melanoma): 12.4 µM
- TGI (MDA-N): 30.4 µM
- TGI (MDA-MB-435): 36.4 µM
- TGI (CAKI-1 renal): > 100 µM
- TGI (OVCAR-5 ovarian): 31.8 µM
- TGI (K-562 leukemia): 31.9 µM
- TGI (SNB-19 CNS): 31.5 µM
- TGI (SN12C renal): 32.1 µM
- TGI (TK-10 renal): 31.5 µM
- TGI (SNB-75 CNS): 52.4 µM
- TGI (OVCAR-3 ovarian): 34.1 µM
- TGI (IGROV1 ovarian): 47.7 µM
- TGI (SF-295 CNS): 37.4 µM
- TGI (OVCAR-8 ovarian): 37.5 µM
- TGI (MCF7 breast): 38.9 µM
- TGI (SF-539 CNS): 32 µM
- TGI (UO-31 renal): 29.2 µM
- TGI (HS 578T breast): 42 µM
- TGI (UACC-62 melanoma): 28.4 µM
- TGI (MOLT-4 leukemia): 37.8 µM
- TGI (SW-620 colon): 37.6 µM
- TGI (HOP-92 NSCLC): 30.7 µM
- TGI (MALME-3M melanoma): 29.9 µM
- TGI (MDA-MB-231 breast): 31.7 µM
- TGI (CCRF-CEM leukemia): > 100 µM
- TGI (A498 renal): 28.1 µM
- TGI (786-0 renal): 30.7 µM
- TGI (EKVX NSCLC): 37.1 µM
- TGI (A549 NSCLC): 35.9 µM
- TGI (OVCAR-4 ovarian): 61.8 µM
- TGI (RXF 393 renal): 27.5 µM
- TGI (SK-OV-3 ovarian): 84.8 µM
- TGI (M14 melanoma): 28.2 µM
- TGI (SK-MEL-28 melanoma): 32.4 µM
- TGI (NCI/ADR-RES ovarian): 37.6 µM
- TGI (SK-MEL-5 melanoma): 28.5 µM
- TGI (HOP-62 NSCLC): 47.6 µM
- TGI (LOX IMVI melanoma): 26.8 µM

Compound: C=C1CC[C@H](O)C(C)(C)[C@@H]1CC/C(C)=C/CC/C=C(\C)CC/C=C(\C)CCC=C(C)C
- TGI (HCT-116 colon): > 100 µM
- TGI (SR leukemia): > 100 µM
- TGI (HCT-15 colon): > 100 µM
- TGI (T-47D breast): 59.3 µM
- TGI (NCI-H522 lung): > 100 µM
- TGI (KM12 colon): > 100 µM
- TGI (NCI-H23 lung): > 100 µM
- TGI (SF-268 CNS): > 100 µM
- TGI (U251 CNS): > 100 µM
- TGI (PC-3 prostate): > 100 µM
- TGI (SK-MEL-2 melanoma): > 100 µM
- TGI (ACHN renal): > 100 µM
- TGI (HT29 colon): > 100 µM
- TGI (HL-60(TB) leukemia): 69 µM
- TGI (DU-145 prostate): > 100 µM
- TGI (BT-549 breast): > 100 µM
- TGI (NCI-H460 lung): > 100 µM
- TGI (COLO 205 colon): > 100 µM
- TGI (NCI-H226 lung): > 100 µM
- TGI (UACC-257 melanoma): > 100 µM
- TGI (MDA-N): > 100 µM
- TGI (MDA-MB-435): > 100 µM
- TGI (CAKI-1 renal): > 100 µM
- TGI (OVCAR-5 ovarian): > 100 µM
- TGI (K-562 leukemia): > 100 µM
- TGI (SNB-19 CNS): > 100 µM
- TGI (SN12C renal): > 100 µM
- TGI (TK-10 renal): > 100 µM
- TGI (SNB-75 CNS): > 100 µM
- TGI (OVCAR-3 ovarian): > 100 µM
- TGI (IGROV1 ovarian): > 100 µM
- TGI (SF-295 CNS): > 100 µM
- TGI (OVCAR-8 ovarian): > 100 µM
- TGI (MCF7 breast): > 100 µM
- TGI (SF-539 CNS): > 100 µM
- TGI (UO-31 renal): > 100 µM
- TGI (HS 578T breast): > 100 µM
- TGI (UACC-62 melanoma): > 100 µM
- TGI (MOLT-4 leukemia): > 100 µM
- TGI (SW-620 colon): > 100 µM
- TGI (HOP-92 NSCLC): > 100 µM
- TGI (MALME-3M melanoma): > 100 µM
- TGI (MDA-MB-231 breast): > 100 µM
- TGI (CCRF-CEM leukemia): > 100 µM
- TGI (A498 renal): > 100 µM
- TGI (786-0 renal): > 100 µM
- TGI (EKVX NSCLC): > 100 µM
- TGI (A549 NSCLC): > 100 µM
- TGI (OVCAR-4 ovarian): > 100 µM
- TGI (RXF 393 renal): 51.9 µM
- TGI (SK-OV-3 ovarian): > 100 µM
- TGI (M14 melanoma): > 100 µM
- TGI (SK-MEL-28 melanoma): > 100 µM
- TGI (NCI/ADR-RES ovarian): > 100 µM
- TGI (HCC-2998 colon): > 100 µM
- TGI (SK-MEL-5 melanoma): > 100 µM
- TGI (HOP-62 NSCLC): > 100 µM
- TGI (LOX IMVI melanoma): > 100 µM

Compound: CN(/N=C/c1ccc(OCc2cccc(COc3ccc(C=O)cc3)n2)cc1)c1cnn(-c2ccc(Cl)cc2Cl)c(=O)c1Cl
- TGI (HCT-116 colon): > 100 µM
- TGI (SR leukemia): > 100 µM
- TGI (HCT-15 colon): > 100 µM
- TGI (T-47D breast): > 100 µM
- TGI (NCI-H522 lung): > 100 µM
- TGI (KM12 colon): > 100 µM
- TGI (RPMI-8226 leukemia): > 100 µM
- TGI (NCI-H23 lung): > 100 µM
- TGI (SF-268 CNS): > 100 µM
- TGI (U251 CNS): > 100 µM
- TGI (PC-3 prostate): > 100 µM
- TGI (SK-MEL-2 melanoma): > 100 µM
- TGI (ACHN renal): > 100 µM
- TGI (HT29 colon): > 100 µM
- TGI (HL-60(TB) leukemia): > 100 µM
- TGI (DU-145 prostate): > 100 µM
- TGI (BT-549 breast): > 100 µM
- TGI (NCI-H460 lung): > 100 µM
- TGI (COLO 205 colon): > 100 µM
- TGI (NCI-H226 lung): > 100 µM
- TGI (UACC-257 melanoma): > 100 µM
- TGI (MDA-N): > 100 µM
- TGI (MDA-MB-435): > 100 µM
- TGI (CAKI-1 renal): > 100 µM
- TGI (OVCAR-5 ovarian): > 100 µM
- TGI (K-562 leukemia): > 100 µM
- TGI (SNB-19 CNS): > 100 µM
- TGI (SN12C renal): > 100 µM
- TGI (TK-10 renal): > 100 µM
- TGI (SNB-75 CNS): 39.9 µM
- TGI (OVCAR-3 ovarian): > 100 µM
- TGI (IGROV1 ovarian): > 100 µM
- TGI (SF-295 CNS): > 100 µM
- TGI (OVCAR-8 ovarian): > 100 µM
- TGI (MCF7 breast): > 100 µM
- TGI (SF-539 CNS): 46.9 µM
- TGI (UO-31 renal): > 100 µM
- TGI (HS 578T breast): > 100 µM
- TGI (UACC-62 melanoma): > 100 µM
- TGI (MOLT-4 leukemia): > 100 µM
- TGI (SW-620 colon): > 100 µM
- TGI (MALME-3M melanoma): > 100 µM
- TGI (MDA-MB-231 breast): > 100 µM
- TGI (CCRF-CEM leukemia): > 100 µM
- TGI (A498 renal): > 100 µM
- TGI (786-0 renal): > 100 µM
- TGI (EKVX NSCLC): > 100 µM
- TGI (A549 NSCLC): > 100 µM
- TGI (OVCAR-4 ovarian): > 100 µM
- TGI (RXF 393 renal): 73.2 µM
- TGI (M14 melanoma): > 100 µM
- TGI (SK-MEL-28 melanoma): > 100 µM
- TGI (NCI/ADR-RES ovarian): > 100 µM
- TGI (HCC-2998 colon): > 100 µM
- TGI (SK-MEL-5 melanoma): > 100 µM
- TGI (HOP-62 NSCLC): > 100 µM
- TGI (LOX IMVI melanoma): > 100 µM
